Results on five molecules are retold here after ChEMBL document CHEMBL1129225, “Synthesis of 11,13-bridged progestational steroids” (1997).

Activity calls are given as the source filed them. The rule behind the calls is not given here. Where only a bound is given, the exact number is not on record here.

The first assay has as its system Oryctolagus cuniculus. Nature of the assay: In vivo activity using McPhail test after oral dose. In kind it is functional.
The molecule `C#C[C@]1(O)CCC2C3CCC4=CC(=O)CCC4C3[C@H]3C=C[C@]21C3` (stereo partly specified) came in with an ED2 of over 0.125 mg/kg. Consider `C#C[C@]1(O)CCC2C3CCC4=CC(=O)CCC4C3[C@@H](C)CC21C` (stereo partly specified), for which the ED2 was determined as 0.015 mg/kg. The same measure, in the same setting: the same measure for `C#C[C@]1(O)CCC2C3CCC4=CC(=O)CCC4C3[C@@H]3C[C@@]21CO3` (stereo partly specified): over 4 mg/kg. Still for that read-out and setting: the same measure for `C#C[C@]1(O)CC[C@H]2[C@@H]3CCC4=CC(=O)CC[C@@H]4[C@H]3CC[C@@]21C` [NORETHINDRONE]: 0.5 mg/kg; for `C#C[C@]1(O)CCC2C3CCC4=CC(=O)CCC4C3[C@H]3CC[C@]21C3` (stereo partly specified): 0.032 mg/kg.

A further assay deals with T1, Progesterone receptor (Homo sapiens) (UniProt P06401).
T1 sequence (whole entry): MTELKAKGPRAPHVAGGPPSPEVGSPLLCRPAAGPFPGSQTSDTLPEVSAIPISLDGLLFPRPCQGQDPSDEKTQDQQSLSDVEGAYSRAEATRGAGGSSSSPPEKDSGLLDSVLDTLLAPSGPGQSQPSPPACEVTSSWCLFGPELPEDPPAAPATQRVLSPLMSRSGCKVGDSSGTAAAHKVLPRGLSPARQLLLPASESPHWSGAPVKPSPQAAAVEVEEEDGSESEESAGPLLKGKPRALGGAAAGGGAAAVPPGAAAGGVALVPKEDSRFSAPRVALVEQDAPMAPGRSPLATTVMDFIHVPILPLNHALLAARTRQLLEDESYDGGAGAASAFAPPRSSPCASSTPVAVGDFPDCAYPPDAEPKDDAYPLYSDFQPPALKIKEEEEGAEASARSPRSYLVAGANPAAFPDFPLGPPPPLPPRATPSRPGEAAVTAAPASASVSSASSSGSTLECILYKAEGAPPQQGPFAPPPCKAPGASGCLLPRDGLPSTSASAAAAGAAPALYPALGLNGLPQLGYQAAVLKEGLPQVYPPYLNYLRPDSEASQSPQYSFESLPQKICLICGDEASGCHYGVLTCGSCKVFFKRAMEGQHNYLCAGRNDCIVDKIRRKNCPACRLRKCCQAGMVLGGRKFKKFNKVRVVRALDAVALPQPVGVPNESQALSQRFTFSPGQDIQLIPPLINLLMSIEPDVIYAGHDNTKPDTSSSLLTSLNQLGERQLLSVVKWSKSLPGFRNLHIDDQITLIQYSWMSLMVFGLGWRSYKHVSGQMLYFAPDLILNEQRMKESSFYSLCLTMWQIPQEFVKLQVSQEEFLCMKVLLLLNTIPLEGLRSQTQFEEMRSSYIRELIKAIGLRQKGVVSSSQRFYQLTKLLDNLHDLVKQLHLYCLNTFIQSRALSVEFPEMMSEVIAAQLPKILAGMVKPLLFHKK
Nature of the assay: Relative binding affinity to progesterone receptor of MCF-7 cytosol; No competitive binding.
As to `C#C[C@]1(O)CCC2C3CCC4=CC(=O)CCC4C3[C@@H]3C[C@@]21CO3` (stereo partly specified), the “relative binding affinity (RBA)” value was “inactive”.
